Reference: article PMC10914727 (Nature Communications, 2024)
“And” between values parts separate entries of the source, which are not always exact repeats. Equal values may be shown once. Read-outs that look alike come from different tables or passages of the source.

Key:
[1] = molecular target: T1, endogenous GABAB receptor in CGNs (Mus musculus, UniProt Q9WV18); test: cell-based; set-up: species or system primary cerebellar granule neurons (CGNs); BRET G protein sensor (Galpha-Nluc / Venus-Ggamma2), agonist-induced change of BRET
T1 construct: gene Gabbr1; native receptor, primary cerebellar granule neurons
Excerpt: (§1) Dotted line is the correlation of pEC50 determined with HEK293 cells. […] Data are mean ± SEM from at least three biologically independent experiments each performed in triplicate and analysed using one-way ANOVA with a Dunnett’s post-hoc multiple comparison test to determine significance. […] Sequence of the linker (L) before and after Nluc was indicated. […] The raw data and p-values are available in source data provided as a Source Data file.

[2] = molecular target: T2, GABAB receptor (GB1 subunit) (Rattus norvegicus, UniProt Q9Z0U4); test: cell-based; set-up: species or system HEK293; BRET G protein sensor (Galpha-Nluc / Venus-Ggamma2), agonist-induced change of BRET
T2 construct: gene Gabbr1; HA-tagged rat GB1 with Flag-tagged rat GB2 expressed in HEK293 cells; with GABAB2 (GB2)
Excerpt: as §1

cannabinoid CB1 receptor [3] = molecular target: T3, cannabinoid CB1 receptor (Mus musculus, UniProt P47746); test: cell-based; set-up: species or system HEK293
T3 construct: gene Cnr1; mouse CB1 cDNA expressed in HEK293 cells
Excerpt: The raw data and p-values are available in source data provided as a Source Data file.

[4] = molecular target: T4, endogenous cannabinoid CB1 receptor in CGNs (Mus musculus, UniProt P47746); test: cell-based; set-up: species or system mouse primary cerebellar granule neurons (CGNs)
T4 construct: gene Cnr1; native receptor, primary cerebellar granule neurons

cannabinoid CB1 receptor [5] = molecular target: T3, cannabinoid CB1 receptor; test: cell-based; set-up: BRET between Galpha-Nluc and Venus-Ggamma2, agonist-induced Gi1 or GoA response of transfected mouse CB1; settings: read-out: Emax ± SEM (n) / Bay 59-3074
Procedure: Fig. 6 Difference of Gi1 and GoA responses by cannabinoid receptor CB1 agonists. a Detection of CB1 receptor in cell membranes of CGNs, mock-transfected HEK293 cells and HEK293 cells transfected with mouse CB1 cDNA (80 ng/well in 96-well plate), by western blotting. Values are mean ± SEM normalized as fold of CB1 expression in CGNs from three independent experiments. b Percentage of change in BRET ratio between Gα^Nluc and ^VenusGγ2 induced by [compound left out] in HEK293 cells (CB1 cDNA; 80 ng/well per 96-well plate) or CGNs for the indicated Gαi1, Gαi2, Gαi3, GαoA, GαoB or Gαz sensors (amounts of cDNA as in Fig. 2a). […] Data are analysed using unpaired t-test (two-tailed) to determine significance. ****p < 0.0001, *p < 0.05 and not significant (ns). c, d Change of BRET signal between Gα^Nluc and ^VenusGγ2 induced by the indicated CB1 receptor agonists in HEK293 cells and CGNs measured by Gi1 and GoA sensors. […] Inset, correlation of the agonist potencies (pEC50) between HEK293 cells and CGNs determined by the G protein sensors. Dotted lines are the correlation of pEC50 determined with HEK293 cells. […] Values are mean ± SEM normalized as fold of […] expression in CGNs from four independent experiments. c Expression of the Nluc-tagged Gα transfected in CGNs or in HEK293 cells in (a), measured by the luminescent signal at 480 nm. […]

[6] = molecular target: T4, endogenous cannabinoid CB1 receptor in CGNs; set-up: species or system mouse primary cerebellar granule neurons (CGNs); settings: agonist
[7] = molecular target: T1, endogenous GABAB receptor in CGNs; test: cell-based; set-up: species or system primary cerebellar granule neurons (CGNs); settings: with 20 uM baclofen
Excerpt: We have further validated these G protein sensors by measuring the potency of different orthosteric GABAB receptor ligands (Fig. 3a) in both CGNs and HEK293 cells. […] Similar results were obtained in the hippocampal neurons and cortical neurons (Supplementary Fig. 4b–d and Supplementary Table 1). […] Dotted line is the correlation of pEC50 determined with HEK293 cells. […] Data are mean ± SEM from at least three biologically independent experiments each performed in triplicate and analysed using one-way ANOVA with a Dunnett’s post-hoc multiple comparison test to determine significance. […] The raw data and p-values are available in source data provided as a Source Data file. Fig. 1 Design and validation of the Gi/o protein sensors in neurons. a Scheme of the BRET-based sensors to detect the activity of the endogenous GPCR in neurons. b Scheme of the Gαi/o^Nluc and ^VenusGγ2 constructs co-transfected in the neurons. Sequence of the linker (L) before and after Nluc was indicated. […] The data are representative of BRET ratios from five independent experiments. e Representative fluorescent images of Venus and DAPI in CGNs transfected with GαoA^Nluc and ^VenusGγ2 or in HEK293 cells transfected with GαoA^Nluc, Gβ1 and ^VenusGγ2 from three independent experiments. […] The data are representative of the mean ± SEM of BRET ratios from three independent experiments. […]

[8] = molecular target: T5, endogenous GABAB receptor in hippocampal neurons (Mus musculus, UniProt Q9WV18); test: cell-based; set-up: species or system primary hippocampal neurons; BRET G protein sensor (Galpha-Nluc / Venus-Ggamma2), agonist-induced change of BRET; settings: read-out: pEC50 hippocampal neurons (converted)
T5 construct: gene Gabbr1; native receptor, primary hippocampal neurons
Excerpt: (§2) Sequence of the linker (L) before and after Nluc was indicated. […] The raw data and p-values are available in source data provided as a Source Data file.

[9] = molecular target: T6, endogenous GABAB receptor in cortical neurons (Mus musculus, UniProt Q9WV18); test: cell-based; set-up: species or system primary cortical neurons; settings: read-out: pEC50 cortical neurons (converted)
T6 construct: gene Gabbr1; native receptor, primary cortical neurons
Excerpt: as §2

T5 sequence (Q9WV18 whole entry): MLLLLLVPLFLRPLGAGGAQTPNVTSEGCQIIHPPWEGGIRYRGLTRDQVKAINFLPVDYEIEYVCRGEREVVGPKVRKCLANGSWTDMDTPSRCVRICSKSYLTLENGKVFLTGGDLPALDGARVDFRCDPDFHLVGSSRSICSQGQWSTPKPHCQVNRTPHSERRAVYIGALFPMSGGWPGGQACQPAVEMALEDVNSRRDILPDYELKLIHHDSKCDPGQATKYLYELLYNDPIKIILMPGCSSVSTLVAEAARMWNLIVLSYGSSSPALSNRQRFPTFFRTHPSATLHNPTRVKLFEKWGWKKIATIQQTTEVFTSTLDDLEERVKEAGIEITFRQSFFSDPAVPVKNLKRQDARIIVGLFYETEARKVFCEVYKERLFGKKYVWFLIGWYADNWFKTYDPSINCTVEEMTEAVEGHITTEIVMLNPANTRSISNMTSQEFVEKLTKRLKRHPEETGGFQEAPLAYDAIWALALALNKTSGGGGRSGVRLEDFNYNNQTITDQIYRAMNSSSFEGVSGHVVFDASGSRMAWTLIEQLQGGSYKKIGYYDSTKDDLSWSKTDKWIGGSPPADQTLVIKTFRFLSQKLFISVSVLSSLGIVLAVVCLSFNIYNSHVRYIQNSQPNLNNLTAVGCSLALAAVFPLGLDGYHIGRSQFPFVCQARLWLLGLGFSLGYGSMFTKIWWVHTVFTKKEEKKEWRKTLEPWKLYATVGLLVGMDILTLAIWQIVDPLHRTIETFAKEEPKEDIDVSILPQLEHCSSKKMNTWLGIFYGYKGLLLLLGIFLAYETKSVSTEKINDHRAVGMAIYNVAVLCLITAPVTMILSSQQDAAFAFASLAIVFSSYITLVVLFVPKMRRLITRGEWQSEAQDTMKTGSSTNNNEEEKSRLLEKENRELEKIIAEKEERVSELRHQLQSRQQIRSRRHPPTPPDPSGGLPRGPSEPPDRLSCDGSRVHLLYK
T5 sequence (Q80T41 whole entry partner): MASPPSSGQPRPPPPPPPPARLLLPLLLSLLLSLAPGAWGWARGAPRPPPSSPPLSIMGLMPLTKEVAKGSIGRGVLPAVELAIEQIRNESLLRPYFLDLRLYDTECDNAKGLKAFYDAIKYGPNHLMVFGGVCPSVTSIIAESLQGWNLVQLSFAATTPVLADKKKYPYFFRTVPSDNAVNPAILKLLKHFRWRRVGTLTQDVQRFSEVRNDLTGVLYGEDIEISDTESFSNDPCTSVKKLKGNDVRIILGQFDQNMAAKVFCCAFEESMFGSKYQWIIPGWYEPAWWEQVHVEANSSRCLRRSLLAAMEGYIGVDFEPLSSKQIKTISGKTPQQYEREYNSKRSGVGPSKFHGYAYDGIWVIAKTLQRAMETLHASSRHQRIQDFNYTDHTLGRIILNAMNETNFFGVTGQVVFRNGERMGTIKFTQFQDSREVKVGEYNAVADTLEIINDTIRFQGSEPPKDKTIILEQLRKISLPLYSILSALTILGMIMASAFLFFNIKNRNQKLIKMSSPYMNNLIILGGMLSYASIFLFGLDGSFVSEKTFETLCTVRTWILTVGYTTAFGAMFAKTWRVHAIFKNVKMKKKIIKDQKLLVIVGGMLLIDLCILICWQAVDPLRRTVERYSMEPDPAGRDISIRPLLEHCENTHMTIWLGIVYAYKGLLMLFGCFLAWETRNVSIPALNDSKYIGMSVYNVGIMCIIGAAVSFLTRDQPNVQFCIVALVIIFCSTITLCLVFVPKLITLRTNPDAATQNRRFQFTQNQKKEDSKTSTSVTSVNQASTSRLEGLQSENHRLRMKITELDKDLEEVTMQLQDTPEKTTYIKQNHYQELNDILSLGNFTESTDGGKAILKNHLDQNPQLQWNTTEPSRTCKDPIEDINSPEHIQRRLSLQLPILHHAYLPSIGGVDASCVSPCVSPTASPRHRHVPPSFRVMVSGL
T6 sequence (Q9WV18 whole entry): as the sequence (Q9WV18 whole entry) above
T6 sequence (Q80T41 whole entry partner): as the sequence (Q80T41 whole entry partner) above
T1 sequence (Q9WV18 whole entry): as the sequence (Q9WV18 whole entry) above
T1 sequence (Q80T41 whole entry partner): as the sequence (Q80T41 whole entry partner) above
T4 sequence (P47746 whole entry): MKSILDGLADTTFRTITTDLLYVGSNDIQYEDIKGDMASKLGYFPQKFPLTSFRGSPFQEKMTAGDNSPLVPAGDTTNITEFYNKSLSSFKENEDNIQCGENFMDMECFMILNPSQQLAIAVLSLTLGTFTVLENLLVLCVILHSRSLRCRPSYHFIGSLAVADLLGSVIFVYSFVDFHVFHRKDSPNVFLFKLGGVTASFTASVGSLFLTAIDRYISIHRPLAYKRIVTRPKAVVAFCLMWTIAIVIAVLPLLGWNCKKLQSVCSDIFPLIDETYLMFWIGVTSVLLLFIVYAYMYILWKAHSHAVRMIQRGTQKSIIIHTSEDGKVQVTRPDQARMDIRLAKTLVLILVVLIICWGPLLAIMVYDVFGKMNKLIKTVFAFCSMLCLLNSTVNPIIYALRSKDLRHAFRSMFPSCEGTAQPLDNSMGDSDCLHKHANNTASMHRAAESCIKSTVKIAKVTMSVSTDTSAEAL
T3 sequence (P47746 whole entry): as above
T2 sequence (Q9Z0U4 20-960): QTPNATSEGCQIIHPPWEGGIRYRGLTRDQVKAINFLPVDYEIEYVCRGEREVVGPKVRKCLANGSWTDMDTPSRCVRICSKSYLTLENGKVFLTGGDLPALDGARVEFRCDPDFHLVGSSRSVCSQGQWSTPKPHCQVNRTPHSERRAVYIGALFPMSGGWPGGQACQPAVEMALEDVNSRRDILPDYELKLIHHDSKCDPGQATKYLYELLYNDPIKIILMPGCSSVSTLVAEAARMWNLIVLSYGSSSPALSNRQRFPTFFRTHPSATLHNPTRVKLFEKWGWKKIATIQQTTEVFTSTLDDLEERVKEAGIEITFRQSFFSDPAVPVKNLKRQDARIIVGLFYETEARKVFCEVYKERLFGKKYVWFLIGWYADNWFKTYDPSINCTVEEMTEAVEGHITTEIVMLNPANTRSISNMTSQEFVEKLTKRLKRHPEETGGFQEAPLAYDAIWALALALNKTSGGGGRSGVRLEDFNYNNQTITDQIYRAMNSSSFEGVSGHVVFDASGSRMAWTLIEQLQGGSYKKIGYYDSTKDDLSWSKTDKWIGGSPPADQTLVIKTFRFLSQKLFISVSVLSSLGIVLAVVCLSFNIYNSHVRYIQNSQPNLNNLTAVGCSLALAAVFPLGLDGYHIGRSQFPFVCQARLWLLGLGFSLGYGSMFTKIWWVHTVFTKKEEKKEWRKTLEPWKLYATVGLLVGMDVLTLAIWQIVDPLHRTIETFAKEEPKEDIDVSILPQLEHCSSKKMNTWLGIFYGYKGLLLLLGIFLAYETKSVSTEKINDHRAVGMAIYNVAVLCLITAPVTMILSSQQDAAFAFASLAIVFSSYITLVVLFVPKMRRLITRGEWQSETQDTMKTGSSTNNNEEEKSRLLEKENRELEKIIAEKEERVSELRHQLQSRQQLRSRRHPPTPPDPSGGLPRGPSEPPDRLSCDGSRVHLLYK
T2 sequence (O88871 41-940 partner): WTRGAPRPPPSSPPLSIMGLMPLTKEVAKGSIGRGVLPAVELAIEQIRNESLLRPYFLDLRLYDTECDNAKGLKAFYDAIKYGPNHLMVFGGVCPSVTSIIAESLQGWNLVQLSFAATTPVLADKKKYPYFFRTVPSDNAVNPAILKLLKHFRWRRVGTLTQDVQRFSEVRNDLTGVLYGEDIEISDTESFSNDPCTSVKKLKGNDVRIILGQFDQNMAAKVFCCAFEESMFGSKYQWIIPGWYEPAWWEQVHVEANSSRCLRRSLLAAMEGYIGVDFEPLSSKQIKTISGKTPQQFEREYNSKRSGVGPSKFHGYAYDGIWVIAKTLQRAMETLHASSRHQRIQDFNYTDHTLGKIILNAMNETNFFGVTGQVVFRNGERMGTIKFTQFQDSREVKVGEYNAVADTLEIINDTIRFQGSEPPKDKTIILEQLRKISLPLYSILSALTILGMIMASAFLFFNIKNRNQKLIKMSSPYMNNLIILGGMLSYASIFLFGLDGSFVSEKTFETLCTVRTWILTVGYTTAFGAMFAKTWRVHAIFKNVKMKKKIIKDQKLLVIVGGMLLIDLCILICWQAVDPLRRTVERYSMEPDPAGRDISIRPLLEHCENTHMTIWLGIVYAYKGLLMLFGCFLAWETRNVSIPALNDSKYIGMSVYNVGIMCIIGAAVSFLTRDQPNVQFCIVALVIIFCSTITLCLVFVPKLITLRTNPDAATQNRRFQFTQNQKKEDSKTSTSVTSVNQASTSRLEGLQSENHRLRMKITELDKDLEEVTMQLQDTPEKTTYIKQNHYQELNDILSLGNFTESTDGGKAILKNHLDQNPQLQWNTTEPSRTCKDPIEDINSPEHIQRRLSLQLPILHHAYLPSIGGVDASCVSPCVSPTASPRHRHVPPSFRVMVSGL

NCCC[PH](=O)O [APPA]
EC50 ([1]; Gi1 sensor): 741 nM
EC50 ([1]; GoA sensor): 692 nM
EC50 ([2]; pEC50 HEK293, Gi1 sensor): 21.4 nM
EC50 ([2]; pEC50 HEK293, GoA sensor): 17 nM

N#Cc1c(Oc2cccc(OS(=O)(=O)CCCC(F)(F)F)c2)cccc1C(F)(F)F [Bay 59-3074]
EC50 (cannabinoid CB1 receptor [3]; pEC50 ± SEM (n) / Bay 59-3074): 708 nM and 1170 nM
EC50 ([4]; pEC50 ± SEM (n) / Bay 59-3074): 339 nM and 631 nM
Emax (cannabinoid CB1 receptor [5]; HEK293, B=Gi1, % of maximum response of reference agonist): 50.3%
Emax (cannabinoid CB1 receptor [5]; HEK293, B=GoA, % of maximum response of reference agonist): 56.3%
Emax ± SEM (n) / Bay 59-3074 [6]: 70.7 ± 1.1 (4) and 42.1 ± 3.9 (3)

C[C@@H](NC[C@H](O)CP(=O)(O)CCCCCNC(=O)CCc1ccc(O)c(I)c1)c1cccc(C(=O)O)c1 [CGP64213]
IC50 ([7]; Gi1 sensor): 28.2 nM
IC50 ([7]; GoA sensor): 25.7 nM

CCCCCCC(C)(C)c1ccc([C@@H]2C[C@H](O)CC[C@H]2CCCO)c(O)c1 [CP 55940]
EC50 (cannabinoid CB1 receptor [3]; pEC50 ± SEM (n) / CP 55940, B=Gi1, G protein BRET sensor (Gi1 or GoA), transfected HEK293): 126 nM
EC50 (cannabinoid CB1 receptor [3]; pEC50 ± SEM (n) / CP 55940, B=GoA, G protein BRET sensor (Gi1 or GoA), transfected HEK293): 166 nM
EC50 ([4]; pEC50 ± SEM (n) / CP 55940, B=Gi1, G protein BRET sensor (Gi1 or GoA), CGNs): 6.61 nM
EC50 ([4]; pEC50 ± SEM (n) / CP 55940, B=GoA, G protein BRET sensor (Gi1 or GoA), CGNs): 55 nM

CP(=O)(O)CCCN [SKF 97541]
EC50 ([1]; Gi1 sensor): 2340 nM
EC50 ([1]; GoA sensor): 2040 nM
EC50 ([8]; Gi1 sensor): 229 nM
EC50 ([8]; GoA sensor): 692 nM
EC50 ([9]; Gi1 sensor): 302 nM
EC50 ([9]; GoA sensor): 603 nM

NCC(CC(=O)O)c1ccc(Cl)cc1 (stereo not drawn) [baclofen]
EC50 ([1]; Gi1 sensor): 4790 nM
EC50 ([1]; GoA sensor): 2690 nM
EC50 ([8]; Gi1 sensor): 1020 nM
EC50 ([8]; GoA sensor): 2630 nM
EC50 ([9]; Gi1 sensor): 1120 nM
EC50 ([9]; GoA sensor): 1780 nM
